From patent EP0693064B1, “HYDROPHOBIC AMINOCOUMARIN DERIVATIVES AND THEIR USE AS PROTEOLYTIC ENZYME SUBSTRATES OR IN THE PREPARATION OF SUCH SUBSTRATES” (priority 1993, dated 1994)
Entries after “also recorded” stand apart in the source; their conditions may differ.

What was measured:
Enterococcus faecalis = test: Agar test with incorporated fluorogenic substrates (L-alanine aminoaryl peptidase activity), fluorescence of colonies; type: cell-based; conditions: Gram +, substrate in agar 10 to 300 µg/ml, pH 7, overnight at 37°C, UV 365 nm
Description: (§1) Cette différenciation fait appel à une méthode spécifique de discrimination optique des bactéries à coloration de Gram(+) ou Gram(-), qui est réalisée par l'utilisation de substrats fluorogénes de la L-alanine amino arylpeptidase, activité enzymatique retrouvée principalement dans la paroi des bactéries à coloration de Gram(-), comme il est décrit par Cerny G dans European Journal of Applied Microbiology, 1976, 3, p. 223-225, et 1978 5, p. 113-122.
(§2) Dans cet exemple, on utilise cette méthode de détection des activités enzymatiques bactériennes de la L-alanine aminoaryl peptidase avec les substrats fluorogènes S107, S108 et S109 utilisant les composés 10e, 10c et 10d des exemples 15, 13 et 14. Ces substrats sont incorporés à la gélose selon la méthode énoncée par Manafi & Kneifel dans Journal of Applied Bacteriology 1990, 69, p. 822-827.
(§3) Tous les substrats (composés 10c, 10d et […]) sont incorporés à la gélose à différentes concentrations couvrant une gamme de 10 à 300µg/ml.
(§4) Les composés sont préalablement dissous dans le DMSO et dilués dans de l'eau bi-distillée pour constituer des solutions mères à 800µg/ml, qui peuvent être conservées au moins une semaine à +4°C. Les solutions mères sont diluées ensuite pour délivrer les paliers de concentrations définis à 10, 50, 100, 200 et 300µg/ml.
(§5) Ces substrats sont ajoutés à la gélose à 45°C (une température de 85°C fut tolérée par les substrats), préalablement tamponnée à pH=7 et stérilisée par autoclavage. Les boîtes de gélose sont ensuite ensemencées d'une suspension de colonies, stérilement, à l'öse de platine par stries transversales et selon la méthode des quadrants. L'incubation est poursuivie durant une nuit à 37°C.
(§6) Pour chaque concentration on réalise un banc sans colonies et pour chaque type bactérien, un contrôle de culture sans substrat, de sorte que l'on ne puisse observer que les effets de la présence simultanée des colonies et du substrat incorporé à la gélose.
(§7) La révélation des bactéries Gram(-), rendues fluorescentes par le fluorophore S107, S108 ou S109 libéré est réalisée sous lampe UV à une longueur d'onde d'excitation de 365nm, compatible avec les dispositifs commercialisés. L'émission fluorescente impressionne un papier film 35mm Kodak® Ektar® 1000/30° pour un temps d'exposition au 1/60ème de seconde-process C-41.

Escherichia coli = test: as above; type: cell-based; conditions: Gram -, substrate in agar 10 to 300 µg/ml, pH 7, overnight at 37°C, UV 365 nm
Description: as §1, §2, §3, §4, §5, §6, §7

bactéries = test: Toxicity of the substrates towards the bacteria in the agar test; type: cell-based; conditions: substrate in agar 10 to 300 µg/ml, high concentration = 300 µg/ml
Description: as §3, §4, §5, §6

[1] = Diffusion of the released dye in the agar; type: physicochemical; conditions: in the agar (gélose)
Description: as §3, §5
La révélation des bactéries Gram(-), rendues fluorescentes par le fluorophore S107, S108 ou S109 libéré est réalisée sous lampe UV à une longueur d'onde d'excitation de 365nm, compatible avec les dispositifs commercialisés. […]
Les colorants ne diffusent pas dans la gélose, de sorte que la fluorescence n'est émise que par les colonies bactériennes au site de leur croissance. Egalement, les réactions positives (fluorescence claire, lumineuse intense, des colonies Gram négatives sur un fond translucide, estompé bleu/vert pâle, fluorescence d'intensité plus faible pour les bactéries Gram positives) s'observent dès les concentrations faibles à 10µg/ml, ce qui confirme l'utilité de la nature hydrophobe des substrats, de l'absence de diffusion qui en découle et donc de l'efficacité des substrats préparés.

[2] = test system: bactéries Gram(+) et Gram(-); test: Differentiation of Gram(+) and Gram(-) bacteria with fluorogenic substrates incorporated in agar; type: cell-based; conditions: in agreement with Gram staining
Description: Exemple 22. Cet exemple illustre l'utilisation des dérivés de coumarines des exemples 13, 14 et 15 pour La différenciation des bactéries Gram(+) et Gram(-)par incorporation de ces dérivés de coumarines et révélation des colonies fluorescentes.
as §1, §2
Tous les substrats (composés 10c, 10d et […]) sont incorporés à la gélose à différentes concentrations couvrant une gamme de 10 à 300µg/ml. […]

Row | Compound | Test gélose aux substrats (fluorescence) (Enterococcus faecalis) | Test gélose aux substrats (fluorescence) (Escherichia coli) | Toxicité (bactéries) | Diffusion [1] | discrimination des bactéries Gram négatives des bactéries Gram positives [2]
1 | CCCCCCCCCc1cc(=O)oc2cc(NC(=O)[C@H](C)N)ccc12 [S107] | Fluorescence très faible | Fluorescence moyenne | faible; also recorded: non toxiques; also recorded: Toxicité partielle à forte concentration | non diffusibles; also recorded: Diffusion nulle | –
2 | CCCCCCc1cc(=O)oc2cc(NC(=O)[C@H](C)N)ccc12 [S108] | Fluorescence faible | Fluorescence très importante | non toxiques; also recorded: Toxicité nulle | non diffusibles; also recorded: Diffusion nulle | très efficaces
